This is an account of results in patent US6376480B1, “Vitamin D derivatives with substituents at C-25, process for their production, intermediate products and use for the production of pharmaceutical agents” (Schering Aktiengesellschaft, priority 1995, dated 2002).

Where only a bound is given, the exact number is not on record here.

For experiment [1], the system named is HL 60 cells. Put plainly: antagonism of the action of calcitriol in HL 60 cells. It is filed as cell-based, human.
In experiment [2] the test system is HL 60 cells. Put plainly: differentiation induction of HL 60 cells to macrophages (NBT reduction). It is filed as cell-based, human. To be noted: DR = test substance dose/calcitriol dose for comparable semi-maximum effects; 96 hours incubation. As for the experimental part:
It is known in the literature (Mangelsdorf, D. J. et al., J. Cell. Biol. 98: 391-398 (1984)), that the treatment of human leukemia cells (promyelocyte cell line HL 60) in vitro with calcitriol induces the differentiation of cells to macrophages.
HL 60 cells are cultivated in tissue culture medium (RPMI 10% fetal calf serum) at 37° C. in an atmosphere of 5% CO2 in air.
For substance testing, the cells are centrifuged off, and 2.0×10^5 cells/ml in phenol red-free tissue culture medium is taken up. The test substances are dissolved in ethanol and diluted with tissue culture medium without phenol red to the desired concentration. The dilution stages are mixed with the cell suspension at a ratio of 1:10, and 100 μl each of this cell suspension that is mixed with substance is pipetted into an indentation of a 96-hole plate. For control, a cell suspension is mixed analogously with the solvent.
After incubation for 96 hours at 37° C. in 5% CO2 in air, 100 μl of an NBT-TPA solution (nitro blue tetrazolium (NBT), final concentration in the batch of 1 mg/ml, tetradecanoyl phorbolmyristate-13-acetate (TPA), final concentration in the batch of 2×10^−7 mol/l) is pipetted into each indentation of the 96-hole plate in the cell suspension.
By incubation for 2 hours at 37° C. and 5% CO2 in air, NBT is reduced to insoluble formazan because of the intracellular oxygen radical release, stimulated by TPA, in the cells that are differentiated to macrophages.
To complete the reaction, the indentations of the 96-hole plate are suctioned off, and the cells are affixed to the bottom of the plate by adding methanol and dried after affixing. To dissolve the intracellular formazan crystals that are formed, 100 μl of potassium hydroxide (2 mol/l) and 100 μl of dimethyl sulfoxide are pipetted into-each indentation and ultrasonically treated for 1 minute. The concentration of formazan is measured by spectrophotometry at 650 nm.
As a yardstick for the differentiation induction of HL 60 cells to macrophages, the concentration of formed formazan applies.

Experiment [3] addresses T1, calcitriol receptor (Sus scrofa, UniProt A3RGC1).
T1 sequence (A3RGC1 1-427): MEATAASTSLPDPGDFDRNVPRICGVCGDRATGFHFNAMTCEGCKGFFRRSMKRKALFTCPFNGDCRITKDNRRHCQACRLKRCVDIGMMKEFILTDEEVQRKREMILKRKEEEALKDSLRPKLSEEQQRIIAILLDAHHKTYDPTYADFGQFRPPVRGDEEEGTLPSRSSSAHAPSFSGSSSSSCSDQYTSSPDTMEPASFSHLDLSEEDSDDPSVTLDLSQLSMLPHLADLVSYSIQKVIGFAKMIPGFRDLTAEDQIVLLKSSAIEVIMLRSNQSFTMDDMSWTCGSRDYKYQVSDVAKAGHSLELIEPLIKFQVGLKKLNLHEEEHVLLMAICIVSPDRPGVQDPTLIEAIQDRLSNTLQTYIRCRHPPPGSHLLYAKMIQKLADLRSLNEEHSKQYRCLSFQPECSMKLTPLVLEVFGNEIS
The experiment in a line: calcitriol-receptor test (competition with 3H-calcitriol). Particulars: quotient of concentrations of test substance and calcitriol for 50% competition, receptor protein from intestines of juvenile pigs.
Description: The vitamin D activity of the substances according to the invention is determined with the aid of the calcitriol-receptor test. It is carried out with use of a specific receptor protein from the intestines of juvenile pigs.
Then, the samples are centrifuged at 10,000×g for 5 minutes at 4° C. The supernatant is decanted and measured in a β-counter after 1 hour of equilibration in Picofluor 15™.
The competition curves that are obtained with various concentrations of test substance as well as of reference substance (unlabeled calcitriol) at constant concentration of the reference substance (^3H-calcitriol) are placed in relation to one another and a competition factor (KF) is determined.
It is defined as a quotient of the concentrations of the respective test substance and the reference substance, which are necessary for 50% competition: [formula]

`C=C1/C(=C\C=C2/CCC[C@]3(C)[C@@H]([C@H](C)/C=C/[C@@H](O)C4(C(=O)CCCC)CC4)CC[C@@H]23)C[C@@H](O)C[C@@H]1O` [Compound 6b, (5Z,7E,22E)-(1S,3R,24R)-25-(1-Oxopentyl)-26,27-cyclo-9,10-secocholesta-5,7,10(19),22-tetraene-1,3,24-triol]: the “antagonism of the action of calcitriol in HL 60 cells” value in experiment [1] was “antagonize the action of calcitriol”. Further, the “Dose Ratio for Differentiation Induction in HL 60 Cells” value in experiment [2] is given as 58. The “Competition Factor KF for Receptor Bonding” value (shortened to “Competition Factor KF”) in experiment [3] is on record as 2.
With `C=C1/C(=C\C=C2/CCC[C@]3(C)[C@@H]([C@H](C)/C=C/[C@@H](O)C4(C(=O)CCCCC)CC4)CC[C@@H]23)C[C@@H](O)C[C@@H]1O` [Compound 9b, (5Z,7E,22E)-(1S,3R,24R)-25-(1-Oxohexyl)-26,27-cyclo-9,10-secocholesta-5,7,10(19),22-tetraene-1,3,24-triol], the “antagonism of the action of calcitriol in HL 60 cells” value in experiment [1] was “antagonize the action of calcitriol”. The “Dose Ratio for Differentiation Induction in HL 60 Cells” value in experiment [2] is on record as above 180. Further, the “Competition Factor KF” value in experiment [3] is reported as 3.
Take `C=C1/C(=C\C=C2/CCC[C@]3(C)[C@@H]([C@H](C)/C=C/[C@@H](O)C4(C(=O)c5ccccc5)CC4)CC[C@@H]23)C[C@@H](O)C[C@@H]1O` [Compound 10b, (5Z,7E,22E)-(1S,3R,24R)-25-benzoyl-26,27-cyclo-9,10-secocholesta-5,7,10(19),22-tetraene-1,3,24-triol]: the “Dose Ratio for Differentiation Induction in HL 60 Cells” value in experiment [2] was found to be 6. For the same compound, the “Competition Factor KF” value in experiment [3] is 2.
The corresponding values for `C=C1C(=CC=C2CCCC3(C)C2CCC3C(C)C=CC(O)C2(C(=O)C3CC3)CC2)CC(O)CC1O` [Compound 12b, (5Z,7E,22E)-(1S,3R,24R)-25-(Cyclopropylcarbonyl)-26,27-cyclo-9,10-secocholesta-5,7,10(19),22-tetraene-1,3,24-triol] are 0.2 and 2.
Turning to `C=C1/C(=C\C=C2/CCC[C@]3(C)[C@@H]([C@H](C)/C=C/[C@@H](O)C4(C(=O)/C=C/CCC)CC4)CC[C@@H]23)C[C@@H](O)C[C@@H]1O` [Compound 18b, [5Z,7E,22E,25(E)]-(1S,3R,24R)-25-(1-Oxo-2-hexenyl)-26,27-cyclo-9,10-secocholesta-5,7,10(19),22-tetraene-1,3,24-triol], in experiment [1], the “antagonism of the action of calcitriol in HL 60 cells” value is “antagonize the action of calcitriol”. For the same compound, the “Dose Ratio for Differentiation Induction in HL 60 Cells” value in experiment [2] came out at 330. In experiment [3], the “Competition Factor KF” value is reported as 2.
Take `C=C1/C(=C\C=C2/CCC[C@]3(C)[C@@H]([C@H](C)/C=C/[C@@H](O)C4(/C=C/C(=O)OCC)CC4)CC[C@@H]23)C[C@@H](O)C[C@@H]1O` [Compound 24b, [5Z,7E,22E,25(E)]-(1S,3R,24R)-25-(3-Ethoxy-3-oxo-1-propenyl)-26,27-cyclo-9,10-secocholesta-5,7,10(19),22-tetraene-1,3,24-triol]: the “antagonism of the action of calcitriol in HL 60 cells” value in experiment [1] is listed as “antagonize the action of calcitriol”. Besides, in experiment [2], the “Dose Ratio for Differentiation Induction in HL 60 Cells” value was above 1000. Also, the “Competition Factor KF” value in experiment [3] is on record as 4.
As for `C=C1/C(=C\C=C2/CCC[C@]3(C)[C@@H]([C@H](C)/C=C/[C@@H](O)C4(/C=C/C(=O)OC(C)(C)C)CC4)CC[C@@H]23)C[C@@H](O)C[C@@H]1O` [Compound 26b, [5Z,7E,22E,25(E)]-(1S,3R,24R)-25-[3-(1,1-Dimethylethoxy)-3-oxo-1-propenyl]-26,27-cyclo-9,10-secocholesta-5,7,10(19),22-tetraene-1,3,24-triol], the “antagonism of the action of calcitriol in HL 60 cells” value in experiment [1] is on record as “antagonize the action of calcitriol”. In addition, in experiment [2], the “Dose Ratio for Differentiation Induction in HL 60 Cells” value was above 1000. Moreover, the “Competition Factor KF” value in experiment [3] was found to be 4.
In the case of `C=C1C(=CC=C2CCCC3(C)C2CCC3C(C)(C)C=CC(O)C2(C(C)=O)CC2)CC(O)CC1O` [Compound 33a, (5Z,7E,22E)-(1S,3R,24S)-25-acetyl-20-methyl-26,27-cyclo-9,10-secocholesta-5,7,10(19),22-tetraene-1,3,24-triol], the “Dose Ratio for Differentiation Induction in HL 60 Cells” value in experiment [2] worked out at 0.5. Also, the “Competition Factor KF” value in experiment [3] was 4.
As for `C=C1C(=CC=C2CCCC3(C)C2CCC3C(C)(C)C=CC(O)C2(C(C)=O)CC2)CC(O)CC1O` [Compound 33b, (5Z,7E,22E)-(1S,3R,24R)-25-acetyl-20-methyl-26,27-cyclo-9,10-secocholesta-5,7,10(19),22-tetraene-1,3,24-triol], the “Dose Ratio for Differentiation Induction in HL 60 Cells” value in experiment [2] is 0.4. Besides, the “Competition Factor KF” value in experiment [3] is 4.
For `C=C1C(=CC=C2CCCC3(C)C2CCC3C(C)(C)C=CC(O)C2(C(=O)CCC)CC2)CC(O)CC1O` [Compound 35a, (5Z,7E,22E)-(1S,3R,24S)-20-methyl-25-(1-oxobutyl)-26,27-cyclo-9,10-secocholesta-5,7,10(19),22-tetraene-1,3,24-triol], in experiment [2], the “Dose Ratio for Differentiation Induction in HL 60 Cells” value was determined as 0.3. Further, the “Competition Factor KF” value in experiment [3] is 7.
Turning to `C=C1C(=CC=C2CCCC3(C)C2CCC3C(C)(C)C=CC(O)C2(C(=O)CCC)CC2)CC(O)CC1O` [Compound 35b, (5Z,7E,22E)-(1S,3R,24R)-20-methyl-25-(1-oxobutyl)-26,27-cyclo-9,10-secocholesta-5,7,10(19),22-tetraene-1,3,24-triol], the “Dose Ratio for Differentiation Induction in HL 60 Cells” value in experiment [2] was determined as 0.2. Moreover, the “Competition Factor KF” value in experiment [3] is 2.
As to `C=C1/C(=C\C=C2/CCC[C@]3(C)[C@@H](C(C)(C)/C=C/[C@H](O)C4(C(=O)CCCCCCC)CC4)CC[C@@H]23)C[C@@H](O)C[C@@H]1O` [Compound 43a, (5Z,7E,22E)-(1S,3R,24S)-20-methyl-25-(1-oxooctyl)-26,27-cyclo-9,10-secocholesta-5,7,10(19),22-tetraene-1,3,24-triol], the “antagonism of the action of calcitriol in HL 60 cells” value in experiment [1] was “antagonize the action of calcitriol”. In addition, the “Dose Ratio for Differentiation Induction in HL 60 Cells” value in experiment [2] was above 1000. In experiment [3], the “Competition Factor KF” value is on record as 48.
On to `CC(=O)C1(C(O)C=CC(C)C2CCC3C(=CC=C4CC(O)CC(O)C4)CCCC32C)CC1` [Compound 55b, (7E,22E)-(1R,3R,24R)-25-Acetyl-26,27-cyclo-19-nor-9,10-secocholesta-5,7,22-triene-1,3,24-triol], for which the “Dose Ratio for Differentiation Induction in HL 60 Cells” value in experiment [2] is listed as 0.2. For the same compound, in experiment [3], the “Competition Factor KF” value came to 4.5.
As for `CC(=O)C1(C(O)C=CC(C)(C)C2CCC3C(=CC=C4CC(O)CC(O)C4)CCCC32C)CC1` [Compound 81a, (7E,22E)-(1R,3R,24S)-25-Acetyl-20-methyl-26,27-cyclo-19-nor-9,10-secocholesta-5,7,22-triene-1,3,24-triol], the “Dose Ratio for Differentiation Induction in HL 60 Cells” value in experiment [2] amounted to 0.2. The “Competition Factor KF” value in experiment [3] amounted to 10.
The corresponding values for `CC(=O)C1(C(O)C=CC(C)(C)C2CCC3C(=CC=C4CC(O)CC(O)C4)CCCC32C)CC1` [Compound 81b, (7E,22E)-(1R,3R,24R)-25-acetyl-20-methyl-26,27-cyclo-19-nor-9,10-secocholesta-5,7,22-triene-1,3,24-triol] are 0.1 and 3.
